Values joined by “and” are separate entries in the source; they are usually repeats but may differ in a detail not shown here. Equal entries are not always repeated.
How the values were obtained:
Type in all cases: cell-based
porcine oocytes [1] = assay: Experiment 1: meiotic resumption of porcine oocytes cultured in maturation medium with 1 mM dbcAMP
Protocol: (§1) Ovaries were collected from prepubertal gilts at a local slaughterhouse and transported to the laboratory at 30-35° C. Antral follicles (2-5 mm in diameter) were aspirated with an 18-gauge needle using vacuum suction (40 mm Hg). […] Oocytes were cultured in 4-well plates (Nunc, Roskilde, Denmark) containing 500 μl of each medium. TCM-199 (Gibco) supplemented with 3.05 mM D-glucose, 0.91 mM Na-pyruvate, 0.57 mM cysteine, 10 ng/ml epidermal growth factor (Sigma), 10 IU/ml eCG (Sioux Biochemicals, Sioux Center, Iowa), 10 IU/ml hCG (Intervet, Millsboro, Del.), and 10% (v:v) porcine follicular fluid was used as a basic maturation medium.
After culture for each period, degenerated oocytes with lysed cytoplasmic membranes were removed.

porcine oocytes [2] = assay: Experiment 2: maturation to metaphase II of porcine oocytes treated with dbcAMP for 20 h, then cultured without dbcAMP; settings: 1 mM dbcAMP for 20 h
Protocol: as §1
Oocytes continued to be cultured for additional 4, 10, 16, and 22 h and examined for meiotic progression to the M II stage by staining with 5 μg/ml Hoechst 33342.

[3] = system: porcine embryos reconstituted with 42-h-matured oocytes; assay: Experiment 5: in vitro development of porcine nuclear transfer embryos reconstituted with 42-h-matured oocytes treated with dbcAMP
Protocol: as §1
At the end of maturation, cumulus cells were removed by vortexing with 0.1% (w:v) hyaluronidase (Sigma) and denuded oocytes were transferred into 100 μl of Hepes-buffered TCM-199 with the osmolarity adjusted to 300 mOsm by adding sorbitol supplemented with 7.5 μg/ml cytochalasin B (Sigma) and 10% FCS (manipulation medium). The first polar body and MII plate were removed by aspiration with a 15-μm inner diameter glass pipette. The oocytes had been previously stained in the manipulation medium supplemented with 5 μg/ml Hoechst 33342 (Sigma) for 20 min and confirmation of successful enucleation was achieved by visualizing the cytoplast and removed cytoplasm under ultraviolet light. After enucleation, a donor cell was inserted into the perivitelline space of each enucleated oocyte using the same glass pipette. Cell-oocyte complexes were washed in TCM-199 supplemented with 10% FCS, transferred to the same medium and kept in a CO2 incubator adjusted to 5% CO2 in air at 38.5° C. until fusion.
The chamber for fusion was a 100 mm dish filled with 15 ml of Zimmerman fusion medium, Zimmerman, et al., Electric field-induced cell-to-cell fusion. J Membr Biol 1982, 67: 165-182. Two stainless steel wires (100 μm diameter) were used as electrodes and they were attached to micromanipulators. The single cell-oocyte complex was sandwiched between the electrodes and oriented with the contact surface between the cytoplast and the donor cell perpendicular to the electrodes. The distance between the electrodes was about 100 μm. Membrane fusion was induced by applying a single direct current pulse of 250 V/mm for a duration of 20 μsec with a prepulse of alternating current field of 5 V, 1 MHz for 2 sec using an LF 101 Fusion Machine (TR Tech Co., Tokyo, Japan). Following the fusion pulse, the complexes were washed in G1.2 medium, Gandhi, et al., Substrate utilization in porcine embryos cultured in NCSU23 and G1.2/G2.2 sequential culture media, Mol Reprod Dev 2001, 58: 269-275 and cultured for a period of 1 h in 100 μl of the same medium. Fusion was then determined by microscopic examination.
At 3 h after fusion, fused embryos were washed once in Zimmerman fusion medium and then placed between 2 wire electrodes (1 mm apart) of the fusion chamber slide with 15 ml of the medium. Direct current pulses of 75 V/mm were applied twice to the embryos for a duration of 60 μsec at intervals of 5 sec. Activated embryos were incubated in 100 μl of G1.2 medium supplemented with 7.5 μg/ml cytochalasin B for 2 h after activation to prevent extrusion of polar bodies, Miyoshi, et al. (2000) (supra), and then transferred into G1.2 medium. After culture in G 1.2 medium for 3 days, the embryos were transferred into 100 μl of G2.2 medium, Gandhi, et al., (2001) (supra), and continued to be cultured. The embryos were examined for cleavage and blastocyst formation at 2 and 7 days of culture, respectively. At the end of the culture period, all blastocysts were counted for nuclei after Hoechst staining. The blastocysts were placed on slides with a drop of mounting medium consisting of glycerol and PBS (9: 1) containing 0.1 mg/ml Hoechst 33342. A cover slip was placed on the top of the blastocysts and the edge was sealed with fingernail polish. The numbers of nuclei were counted under ultraviolet light. […]

[4] = then 4 h additional culture without dbcAMP
[5] = then 10 h additional culture without dbcAMP
[6] = then 16 h additional culture without dbcAMP
[7] = then 22 h additional culture without dbcAMP
[8] = oocytes treated with 1 mM dbcAMP for 20 h, 42-h-matured, examined at 2 days of culture
[9] = oocytes treated with 1 mM dbcAMP for 20 h, 42-h-matured, examined at 7 days of culture
[10] = oocytes treated with 1 mM dbcAMP for 20 h, M II oocytes collected at 42 h of maturation

For `CCCC(=O)Nc1ncnc2c1ncn2[C@@H]1O[C@@H]2COP(=O)(O)O[C@H]2[C@H]1OC(=O)CCC` [dbcAMP, dibutyryl cyclic AMP], the “No. of oocytes at the germinal vesicle stage” value (porcine oocytes [1]; 16 h of culture) was 49, the “oocytes at the germinal vesicle stage (%), percentage (mean ± SEM) of oocytes examined” value (porcine oocytes [1]; 16 h of culture) was 77.8% and 77.8 ± 3.2% and the “No. of oocytes at the germinal vesicle stage” value (porcine oocytes [1]; 20 h of culture) was 43. For the same compound, the “oocytes at the germinal vesicle stage (%), percentage (mean ± SEM) of oocytes examined” value (porcine oocytes [1]; 20 h of culture) was 72.9% and 72.9 ± 10.4%, the “No. of oocytes at the germinal vesicle stage” value (porcine oocytes [1]; 24 h of culture) was 33 and the “oocytes at the germinal vesicle stage (%), percentage (mean ± SEM) of oocytes examined” value (porcine oocytes [1]; 24 h of culture) was 54.1 ± 7.0%. For the same compound, the “No. of oocytes at the germinal vesicle stage” value (porcine oocytes [1]; 42 h of culture) was 27, the “oocytes at the germinal vesicle stage (%), percentage (mean ± SEM) of oocytes examined” value (porcine oocytes [1]; 42 h of culture) was 44.3% and 44.3 ± 2.6% and the “effect of addition of dbcAMP on the percentage of GV oocytes versus absence” value (porcine oocytes [1]; at each culture period (16, 20, 24, 42 h), P<0.05) was “increased”. The “effect of addition of dbcAMP on the percentage of M II oocytes versus absence” value (porcine oocytes [2]; at 10 h of additional culture, P<0.05) was “decreased”, the “No. of oocytes at the metaphase II stage” value (porcine oocytes [2]; [4]) was 30 and the “oocytes at the metaphase II stage (%), percentage (mean ± SEM) of oocytes examined” value (porcine oocytes [2]; [4]) was 35.3% and 35.3 ± 9.2%. For the same compound, the “No. of oocytes at the metaphase II stage” value (porcine oocytes [2]; [5]) was 25, the “oocytes at the metaphase II stage (%), percentage (mean ± SEM) of oocytes examined” value (porcine oocytes [2]; [5]) was 29.8% and 29.8 ± 1.4% and the “No. of oocytes at the metaphase II stage” value (porcine oocytes [2]; [6]) was 54. The “oocytes at the metaphase II stage (%), percentage (mean ± SEM) of oocytes examined” value (porcine oocytes [2]; [6]) was 67.5% and 67.5 ± 8.4%, the “No. of oocytes at the metaphase II stage” value (porcine oocytes [2]; [7]) was 69 and the “oocytes at the metaphase II stage (%), percentage (mean ± SEM) of oocytes examined” value (porcine oocytes [2]; [7]) was 85.2 ± 5.0%. For the same compound, the “difference in mean numbers of cells in the blastocysts between presence and absence of dbcAMP treatment” value ([3]; 42-h-matured oocytes) was “no significant difference”, the “difference in percentages of fused cell-oocyte complexes, cleaved embryos and embryos developed to blastocysts between presence and absence of dbcAMP treatment” value ([3]; 42-h-matured oocytes) was “no significant differences” and the “Mean no. ± SEM of cells in blastocysts” value ([3]; oocytes treated with 1 mM dbcAMP for 20 h, 42-h-matured, blastocysts at end of culture) was 49.0 ± 7.0. For the same compound, the “No. of embryos developed to ≧2-cell” value [3, 8] was 48, the “embryos developed to ≧2-cell (%), percentage (mean ± SEM) of complexes fused” value [3, 8] was 41.4 ± 8.3% and the “No. of embryos developed to Blastocyst” value [3, 9] was 2. The “embryos developed to Blastocyst (%), percentage (mean ± SEM) of complexes fused” value [3, 9] was 1.7 ± 1.5%, the “No. of complexes fused” value [3, 10] was 116 and the “complexes fused (%), percentage (mean ± SEM) of complexes treated” value [3, 10] was 80.0 ± 4.5%.

— patent US20030217378A1, “Cloning using rapidly matured oocytes” (The University of Georgia Research Foundation, Inc, priority 2002, published 2003)
